In patent publication US4959393A, “Skin depigmental agent” (priority 1988, dated 1990):
Where two headings read alike, the source gives them in different places.

Tests used:
tyrosinase [1] = assay: Measurement of Dopa Oxidation Activity (formation of dopa quinone from dopa); format: biochemical, Mushroom; conditions: L-dopa 5×10^-3 M; 10 units tyrosinase; 475 nm; control 15.80
Text: (§1) Tyrosinase is a copper-containing enzyme which controls synthesis of melanin from starting tyrosine. This enzyme is considered to act as a catalyst for the formation of dopa, dopaquinone and indole-5,6-quinone which are, respectively, intermediates for the synthesis of melanin. We measured activities of the resorcinol derivatives of the formula (1) on inhibition of the formation reactions of the former two intermediates, i.e. the formation reaction of dopa (tyrosine hydroxylase) from tyrosine and the formation reaction of dopa quinone (dopa oxidase) from the dopa. From this, the activity on the tyrosinase activity inhibition was determined.
(§2) The presence or absence of UV absorptions of the substrate and the substance to be detected was confirmed, after which […] of tyrosinase (Mushroom, 200 units, made by Sigma Co., Ltd.) was added for starting the reaction. The variation in absorbance at 280 nm which is a maximum absorption of L-dopa was measured. The tyrosine hydroxylation activity was indicated a nmol dopa/min/mg of protein. The amount of the protein was measured according to Lowry's method.
(2) Measurement of Dopa Oxidation Activity
The general procedure of Measurement (1) was repeated except that L-dopa (5×10^-3 M) was used as a that produced dopa chrome was measured at a wavelength of 475 nm, and that 10 units of tyrosinase were used.
The dopa oxidation activity was indicated as μmol of dopa chrome/min/mg of protein.

salmonella typhimuria = conditions: Ames test using salmonella typhimuria
in vivo = conditions: mouse, ddy male mice
Procedure: The life or death of the mice before 24 hours was observed. The value of LD50 was calculated according to the Litchfield-Wilcoxom method using the above results.

skin = conditions: cited from earlier work
tyrosinase [2] = assay: Measurement of Tyrosine Hydroxylation Activity (formation of dopa from tyrosine); format: biochemical; conditions: L-tyrosine 1×10^-4 M; 200 units mushroom tyrosinase; absorbance at 280 nm; control 1.83
Text: as §1
(1) Measurement of Tyrosine Hydroxylation Activity
as §2

[3] = ip, intraperitoneal, read-out: LD50 i.p.
[4] = po, peroral, read-out: LD50 p.o.
[5] = sc, subcutaneous, read-out: LD50 s.c.

| Compound | Activity (dopa oxidation activity) (tyrosinase [1]) | Activity (tyrosine hydroxylation activity) (tyrosinase [2]) | further results |
| --- | --- | --- | --- |
| CC(C)CCc1ccc(O)cc1O [Experiment 9] | 0.00 μmol of dopa chrome/min/mg of |  |  |
| CC(C)CCc1ccc(O)cc1O [Isoamyl resorcinol, 4-Isoamyl resorcinol] |  |  | variability (Ames test) (salmonella typhimuria): no variability |
| CCCCc1ccc(O)cc1O [Experiment 8] | 0.00 μmol of dopa chrome/min/mg of |  |  |
| CC(C)CCc1ccc(O)cc1O [drawing 17] |  |  | LD50 at 24 h (in vivo; [3]): 269 mg/kg; LD50 at 24 h (in vivo; [4]): > 500 mg/kg; LD50 at 24 h (in vivo; [5]): > 500 mg/kg |
| N[C@@H](CCC(=O)N[C@@H](CS)C(=O)NCC(=O)O)C(=O)O [glutathione] |  |  | depigmental effect (skin): do not exhibit a satisfactory depigmental effect since the development of the effect is very slow |
| CCc1ccc(O)cc1O [drawing 2] |  | 0.00 nmol dopa/min/mg of protein |  |
| Oc1ccc(O)cc1 [hydroquinone, reference compound] | 26.94 μmol of dopa chrome/min/mg of | 0.00 nmol dopa/min/mg of protein |  |
| CCCCCCCCc1ccc(O)cc1O [Experiment 5] |  | 0.00 nmol dopa/min/mg of protein |  |
| CCCCCCc1ccc(O)cc1O [drawing 16] |  |  | LD50 at 24 h (in vivo; [3]): 335 mg/kg; LD50 at 24 h (in vivo; [4]): > 500 mg/kg; LD50 at 24 h (in vivo; [5]): > 500 mg/kg |
| CC(C)CCc1ccc(O)cc1O [Experiment 3] |  | 0.00 nmol dopa/min/mg of protein |  |
| Cc1ccc(O)cc1O [drawing 15, reference compound] | 16.81 μmol of dopa chrome/min/mg of |  |  |
| N[C@@H](CS)C(=O)O [cysteine] |  |  | depigmental effect (skin): do not exhibit a satisfactory depigmental effect since the development of the effect is very slow |
| CCCCCCc1ccc(O)cc1O [Experiment 10] | 0.00 μmol of dopa chrome/min/mg of |  |  |
| CCc1ccc(O)cc1O [Experiment 7] | 7.44 μmol of dopa chrome/min/mg of |  |  |
| CCCCCCCCCCCCc1ccc(O)cc1O [Experiment 12] | 7.19 μmol of dopa chrome/min/mg of |  |  |
| Cc1ccc(O)cc1O [Comparative Experiment 1, reference compound] |  | 1.78 nmol dopa/min/mg of protein |  |
| CCCCCCCCc1ccc(O)cc1O [Experiment 11] | 0.00 μmol of dopa chrome/min/mg of |  |  |
| CCCCc1ccc(O)cc1O [Experiment 2] |  | 0.00 nmol dopa/min/mg of protein |  |
| CCCCCCc1ccc(O)cc1O [Experiment 4] |  | 0.00 nmol dopa/min/mg of protein |  |
| CCCCCCCCCCCCc1ccc(O)cc1O [Experiment 6] |  | 0.33 nmol dopa/min/mg of protein |  |
